Source: ChEMBL document CHEMBL5325507, “A TNF-α blocking peptide that reduces NF-κB and MAPK activity for attenuating inflammation” (Bioorg Med Chem, 2023)
Activity calls are given as the source filed them. The rule behind the calls is not given here. Numbered stars: 1 amine (or outer) side, 2 acyl side, 3 side chain; on linkers, the order of the positions; unused ones are H or OH. Bridge positions count the residues as written; N and C are the ends. Square brackets hold non-standard residues; d marks the D form. Peptide text beside a SMILES is read from it. I, II: the chains in the order shown. Actinocin(9to1) = Cc1c2oc3c(C)ccc(C(=O)[*:1])c3nc-2c(C(=O)[*:2])c(N)c1=O; NMeV = CN[C@H](C(=O)O)C(C)C; Sar = CNCC(=O)O

Assays:
HT-29 [1] = experiment: Antiinflammatory activity in human HT-29 cells assessed as downregulation of TNF-alpha-induced IL-8 mRNA expression incubated for 6 hrs by RT-PCR analysis; type: functional, cell-based; details: dose 15-20 µM
[2] = molecular target: Transcription factor p65 (Homo sapiens) (UniProt Q04206); experiment: Inhibition of TNF-alpha induced NF-kappaB p65 nuclear translocation in human HaCaT cells at 120 uM incubated for 10 mins DAPI staining based fluorescence microscopic analysis; type: cell-based
[3] = molecular target: T1, Nuclear factor NF-kappa-B complex (Homo sapiens) (UniProt Q00653+P19838+Q04206); experiment: Inhibition of TNF-alpha induced NF-kappaB activation in HEK293-A cells assessed as decrease in phosphorylated IkappaB level at 15 to 120 uM incubated for 15 mins by Western blot analysis; type: cell-based; details: dose 15-120 µM
[4] = molecular target: T2, Tumor necrosis factor receptor superfamily member 1A (Homo sapiens, UniProt P19438); experiment: Competitive Inhibition of TNF-alpha binding to human recombinant TNFR1 incubated for 1 hr by ELISA analysis
T2 sequence (P19438 whole entry): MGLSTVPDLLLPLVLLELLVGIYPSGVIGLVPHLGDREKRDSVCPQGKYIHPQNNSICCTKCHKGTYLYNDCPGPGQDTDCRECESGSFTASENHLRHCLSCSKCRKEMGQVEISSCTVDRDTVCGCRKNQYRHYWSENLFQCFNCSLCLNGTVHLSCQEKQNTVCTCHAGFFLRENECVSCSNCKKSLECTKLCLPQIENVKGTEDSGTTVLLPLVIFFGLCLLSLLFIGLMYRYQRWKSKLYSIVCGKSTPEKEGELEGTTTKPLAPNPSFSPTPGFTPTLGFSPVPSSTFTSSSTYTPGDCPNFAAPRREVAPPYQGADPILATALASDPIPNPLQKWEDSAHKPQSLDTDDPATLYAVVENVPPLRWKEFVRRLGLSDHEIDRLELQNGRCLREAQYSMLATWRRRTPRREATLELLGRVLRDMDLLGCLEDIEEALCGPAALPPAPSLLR

HEK293-A [5] = experiment: Inhibition of TNF-alpha induced MAPK activation in HEK293-A cells assessed as decrease in phosphorylated JNK expression at 15 to 120 uM incubated for 15 mins by Western blot analysis; type: cell-based; details: Homo sapiens, dose 15-120 µM
[6] = molecular target: T3, Tumor necrosis factor receptor superfamily member 1B (Homo sapiens, UniProt P20333); experiment: Competitive Inhibition of TNF-alpha binding to human recombinant TNFR2 incubated for 1 hr by ELISA analysis
T3 sequence (P20333 whole entry): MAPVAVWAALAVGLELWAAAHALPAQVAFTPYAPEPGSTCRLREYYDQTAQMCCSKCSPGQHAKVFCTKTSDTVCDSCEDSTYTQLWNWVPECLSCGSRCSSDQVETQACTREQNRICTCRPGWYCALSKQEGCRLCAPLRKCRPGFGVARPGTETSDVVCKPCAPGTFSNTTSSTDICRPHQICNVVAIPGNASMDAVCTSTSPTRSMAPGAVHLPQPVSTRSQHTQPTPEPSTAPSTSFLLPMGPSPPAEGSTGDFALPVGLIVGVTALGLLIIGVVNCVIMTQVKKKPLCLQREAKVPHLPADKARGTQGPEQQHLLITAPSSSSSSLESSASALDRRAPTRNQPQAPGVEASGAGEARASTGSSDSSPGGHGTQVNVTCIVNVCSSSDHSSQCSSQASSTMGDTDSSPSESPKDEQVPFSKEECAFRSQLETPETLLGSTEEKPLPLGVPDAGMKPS

HEK293-A [7] = experiment: Inhibition of TNF-alpha induced MAPK activation in HEK293-A cells incubated for 15 mins by Western blot analysis; type: cell-based; details: Homo sapiens, dose 15-120 µM
HEK293-A [8] = experiment: Inhibition of TNF-alpha induced MAPK activation in HEK293-A cells assessed as decrease in phosphorylated ERK expression at 15 to 120 uM incubated for 15 mins by Western blot analysis; type: cell-based; details: Homo sapiens, dose 15-120 µM
HT-29 [9] = experiment: Antiinflammatory activity in human HT-29 cells assessed as downregulation of TNF-alpha-induced IL-1beta mRNA expression incubated for 6 hrs by RT-PCR analysis; type: functional, cell-based; details: dose 15-20 µM
[10] = molecular target: Transcription factor p65 (Homo sapiens) (UniProt Q04206); experiment: Inhibition of TNF-alpha induced NF-kappaB p65 nuclear translocation in human HaCaT cells at 30 to 120 uM incubated for 10 mins DAPI staining based fluorescence microscopic analysis; type: cell-based; details: dose 30-120 µM
[11] = molecular target: T1, Nuclear factor NF-kappa-B complex (Homo sapiens); experiment: Inhibition of TNF-alpha induced NF-kappaB activation in HEK293-A cells incubated for 15 mins by Western blot analysis; type: cell-based; details: dose 15-120 µM
HT-29 [12] = experiment: Antiinflammatory activity in human HT-29 cells assessed as downregulation of TNF-alpha-induced ICAM mRNA expression incubated for 6 hrs by RT-PCR analysis; type: functional, cell-based; details: dose 15-20 µM
HEK293-A [13] = experiment: Inhibition of TNF-alpha induced MAPK activation in HEK293-A cells at 15 to 120 uM by Western blot analysis; type: cell-based; details: Homo sapiens, dose 15-120 µM, time 15.0 min, TDE = time-dependent effect
L929 [14] = experiment: Cytotoxicity against TNF-alpha induced mouse L929 cells assessed as increase in cell survival pretreated for 12 hrs followed by TNF-alpha induction and measured after 18 to 20 hrs by MTT assay; type: toxicity, cell-based
HT-29 [15] = experiment: Antiinflammatory activity in human HT-29 cells assessed as downregulation of TNF-alpha-induced IFN-gamma mRNA expression incubated for 6 hrs by RT-PCR analysis; type: functional, cell-based; details: dose 15-20 µM
[16] = molecular target: T1, Nuclear factor NF-kappa-B complex (Homo sapiens); experiment: Inhibition of TNF-alpha induced NF-kappaB activation in HEK293-A cells at 15 to 120 uM by Western blot analysis; type: cell-based; details: dose 15-120 µM, time 15.0 min, TDE = time-dependent effect
HEK293-A [17] = experiment: Inhibition of TNF-alpha induced MAPK activation in HEK293-A cells assessed as decrease in phosphorylated p38 expression at 15 to 120 uM incubated for 15 mins by Western blot analysis; type: cell-based; details: Homo sapiens, dose 15-120 µM
L929 [18] = experiment: Cytotoxicity against TNF-alpha induced mouse L929 cells assessed as increase in cell survival pretreated for 12 hrs followed by TNF-alpha induction and measured after 20 hrs by MTT assay; type: toxicity, cell-based; details: l929, 32 h

T1 sequence (P19838 whole entry, looked up): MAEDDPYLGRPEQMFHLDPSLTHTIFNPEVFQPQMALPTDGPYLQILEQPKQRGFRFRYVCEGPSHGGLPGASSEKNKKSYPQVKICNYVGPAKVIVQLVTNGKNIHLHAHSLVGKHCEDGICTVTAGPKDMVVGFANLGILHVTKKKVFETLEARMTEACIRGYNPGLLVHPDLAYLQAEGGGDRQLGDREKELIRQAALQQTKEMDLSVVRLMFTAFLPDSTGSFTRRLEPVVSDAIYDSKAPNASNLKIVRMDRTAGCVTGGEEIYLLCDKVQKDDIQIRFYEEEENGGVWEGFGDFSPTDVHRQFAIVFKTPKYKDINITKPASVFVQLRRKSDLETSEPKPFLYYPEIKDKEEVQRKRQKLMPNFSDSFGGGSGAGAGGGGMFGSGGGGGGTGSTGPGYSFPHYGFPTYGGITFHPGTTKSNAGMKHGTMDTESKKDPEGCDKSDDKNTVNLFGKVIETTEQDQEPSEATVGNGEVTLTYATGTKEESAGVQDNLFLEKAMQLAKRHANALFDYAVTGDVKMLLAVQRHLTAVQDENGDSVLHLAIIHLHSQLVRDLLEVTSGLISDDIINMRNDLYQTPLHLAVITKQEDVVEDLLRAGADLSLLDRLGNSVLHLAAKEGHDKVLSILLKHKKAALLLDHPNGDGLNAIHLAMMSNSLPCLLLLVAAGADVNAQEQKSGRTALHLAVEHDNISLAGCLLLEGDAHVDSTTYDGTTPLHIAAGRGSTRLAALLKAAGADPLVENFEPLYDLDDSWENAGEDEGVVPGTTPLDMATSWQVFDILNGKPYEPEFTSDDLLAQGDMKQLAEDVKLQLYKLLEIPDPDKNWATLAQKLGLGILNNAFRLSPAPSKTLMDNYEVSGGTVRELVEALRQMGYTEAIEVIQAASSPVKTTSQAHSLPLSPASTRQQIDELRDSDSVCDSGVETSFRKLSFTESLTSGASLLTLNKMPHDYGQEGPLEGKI
T1 sequence (Q00653 whole entry, looked up): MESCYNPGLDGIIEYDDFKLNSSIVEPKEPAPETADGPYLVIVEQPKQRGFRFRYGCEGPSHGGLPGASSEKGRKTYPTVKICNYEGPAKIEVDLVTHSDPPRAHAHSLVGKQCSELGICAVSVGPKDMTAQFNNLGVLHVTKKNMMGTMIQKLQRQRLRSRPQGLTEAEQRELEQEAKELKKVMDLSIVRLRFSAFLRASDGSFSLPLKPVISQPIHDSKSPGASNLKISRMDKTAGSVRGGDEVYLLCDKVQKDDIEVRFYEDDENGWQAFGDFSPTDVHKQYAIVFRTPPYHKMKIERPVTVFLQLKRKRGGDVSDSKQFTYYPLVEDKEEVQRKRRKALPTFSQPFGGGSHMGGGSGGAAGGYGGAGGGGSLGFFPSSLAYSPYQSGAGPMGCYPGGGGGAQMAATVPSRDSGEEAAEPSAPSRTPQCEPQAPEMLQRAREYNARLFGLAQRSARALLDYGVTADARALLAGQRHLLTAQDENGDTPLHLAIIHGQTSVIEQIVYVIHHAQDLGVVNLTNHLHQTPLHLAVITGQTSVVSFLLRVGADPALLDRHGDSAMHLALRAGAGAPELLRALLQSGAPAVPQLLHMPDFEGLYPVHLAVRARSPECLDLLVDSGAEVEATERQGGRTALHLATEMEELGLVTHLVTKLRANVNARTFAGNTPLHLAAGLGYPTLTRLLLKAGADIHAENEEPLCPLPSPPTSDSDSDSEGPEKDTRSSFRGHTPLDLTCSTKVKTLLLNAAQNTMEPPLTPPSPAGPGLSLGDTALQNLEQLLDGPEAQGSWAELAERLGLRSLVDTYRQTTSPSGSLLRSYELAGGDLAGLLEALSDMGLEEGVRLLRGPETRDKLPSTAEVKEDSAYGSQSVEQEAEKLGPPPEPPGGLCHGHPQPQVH
T1 sequence (Q04206 whole entry, looked up): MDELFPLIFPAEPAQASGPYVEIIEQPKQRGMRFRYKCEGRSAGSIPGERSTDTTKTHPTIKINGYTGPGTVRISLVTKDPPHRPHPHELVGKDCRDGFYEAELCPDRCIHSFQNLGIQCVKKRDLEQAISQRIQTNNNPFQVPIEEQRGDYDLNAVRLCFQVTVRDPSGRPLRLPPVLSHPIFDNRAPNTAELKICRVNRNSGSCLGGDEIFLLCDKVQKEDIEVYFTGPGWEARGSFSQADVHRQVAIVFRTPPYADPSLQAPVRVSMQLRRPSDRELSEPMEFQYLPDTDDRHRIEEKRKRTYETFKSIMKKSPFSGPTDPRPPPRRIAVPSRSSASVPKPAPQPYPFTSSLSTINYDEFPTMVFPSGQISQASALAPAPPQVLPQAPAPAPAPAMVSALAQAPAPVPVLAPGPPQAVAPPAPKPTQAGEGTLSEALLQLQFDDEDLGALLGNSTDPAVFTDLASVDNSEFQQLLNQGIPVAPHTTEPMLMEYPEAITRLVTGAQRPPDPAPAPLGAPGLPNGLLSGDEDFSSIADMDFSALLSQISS
Sequence of Transcription factor p65 (Homo sapiens) (Q04206 whole entry): as the sequence (Q04206 whole entry, looked up) above

inhibition [2] | inhibition [3] | inhibition [10] | inhibition [11] | inhibition [16] | Compound | Activity (HT-29 [1]) | EC50 [4] [µM] | inhibition (HEK293-A [5]) | EC50 [6] [µM] | inhibition (HEK293-A [7]) | inhibition (HEK293-A [8]) | Activity (HT-29 [9]) | Activity (HT-29 [12]) | inhibition (HEK293-A [13]) | IC50 (L929 [14]) [µM] | Activity (HT-29 [15]) | inhibition (HEK293-A [17]) | Activity (L929 [18]) [%]
Active | Active | Active | Dose-Dependent Effect | Tde | H-DEFHLELHLYQSW-OH | Dose-Dependent Effect | 7.25 | Active | 17 | Dose-Dependent Effect | Active | Dose-Dependent Effect | Dose-Dependent Effect | Tde | 15.4 | Dose-Dependent Effect | Active | –
– | – | – | – | – | Cc1c2oc3c(C)ccc(C(=O)N[C@@H]4C(=O)N[C@H](C(C)C)C(=O)N5CCC[C@H]5C(=O)N(C)CC(=O)N(C)[C@@H](C(C)C)C(=O)O[C@@H]4C)c3nc-2c(C(=O)N[C@@H]2C(=O)N[C@H](C(C)C)C(=O)N3CCC[C@H]3C(=O)N(C)CC(=O)N(C)[C@@H](C(C)C)C(=O)O[C@@H]2C)c(N)c1=O [DACTINOMYCIN] (I: T[dV]P[Sar][NMeV] / II: T[dV]P[Sar][NMeV]; ester I:1-I:C, II:1-II:C; linker I:N-II:N via Actinocin(9to1)) | – | – | – | – | – | – | – | – | – | – | – | – | 70
